Test results from patent EP0523675A1, “Inhibitory agent against HIV superinfection” (priority 1991, dated 1993).
Where no end group is shown, it is not given here.

Test system: HTLV-IIIB virus (superinfection of L-2 cells)
Test: Inhibition of superinfection of L-2 cells with HTLV-IIIB, fluorescent antibody technique using V-17 (anti-p18) antibody
Format: cell-based, HIV (Human Immunodeficiency Virus)
Settings: peptide final concentration 1 mg/ml, mixed with HTLV-IIIB virus liquid M.O.I. = 3.2 for 30 min at room temperature, then inoculated into L-2 cells; checked every 4 days; Fig. 2

Sequence: TKGPSKLNDRADSRRS [CD4 peptide (45-60)]
- inhibitory effect on superinfection: not at all observed
